Experimental data published in publication PMC9635468, “Biological evaluation, docking studies, and in silico ADME prediction of some pyrimidine and pyridine derivatives as potential EGFR^WT and EGFR^T790M inhibitors” (Journal of Enzyme Inhibition and Medicinal Chemistry, 2022).
In brackets after ≈: the same amount, converted by molar mass. One block for each compound: values may come before it.

Columns and labels:
MCF7 = experiment: Cytotoxicity screening, SRB assay, MCF7; format: cell-based, human; details: for MCF7 IC50: 48 h; for IC50: Homo sapiens, MCF7, 48 h
Experimental: (§1) In this study, a panel of cell lines was examined for their chemosensitivity. Different concentrations of the synthesised pyridines and pyrimidine derivatives were used in this study (5, 12.5, 25, and 50 µg/mL) for all the examined cell lines. In this study, breast tumour cell line (MCF7), hepatocellular carcinoma cell line (HEPG2), larynx cell line (HEP2), lung cancer cell line (H460), colon cancer cell line (HCT116 and Caco2), hypopharyngeal cell line (FADU), and normal Vero cell line were applied. The full methodology is described in the Supplementary data (SI 1).
(§2) SI 1: Cytotoxicity screening against human cancer cell lines
(§3) In this study, a panel of cell lines was examined for their chemosensitivity. Different concentrations of the synthesized pyridines and pyrimidines derivatives were used in this study (5, 12.5, 25, and 50 µg/ml) for all the examined cell lines. The most sensitive cell line to the treatment regimen was selected and subjected to further investigations to explore the mechanism of this interaction. Human breast tumor cell line (MCF7), human hepatocellular carcinoma cell line (HEPG2), human larynx cell line (HEP2), human lung cancer cell line (H460), human colon cancer cell line (HCT116 and Caco2), human hypopharyngeal cell line (FaDu), and normal cell line Vero were used in this study. It was obtained from the American Type Culture Collection (ATCC, Minnesota, USA). The tumor cell line was maintained at National Cancer Institute (NCI), Cairo, Egypt.
(§4) The antitumor activities of pyridines and pyrimidines derivatives and all tested cell lines were evaluated by sulphorhodamine-B (SRB) assay 1. Briefly, cells were seeded at a density of 3 × 10^3 cells/well in 96-well microtiter plates. They were left to attach for 24 h before incubation with drugs. Next, cells were treated with different concentrations of 5, 12.5, 25, and 50 µg/ml for MCF7, HEPG2, HEP2, HCT116, Caco2, H460, FaDu, and Vero cells. For each concentration, three wells were used and incubation was continued for 48 h. DMSO was used as a control vehicle (1 % v/v). At the end of incubation, cells were fixed with 20 % trichloroacetic acid and stained with 0.4 % SRB dye. The optical density (O.D.) of each well was measured spectrophotometrically at 570 nm using an ELISA microplate reader (TECAN sunrise™, Germany). The mean survival fraction at each drug concentration was calculated as follows: […]
(§5) O.D. of the treated cells/O.D. of the control cells. The IC50 (concentration that produces 50% of cell growth inhibition) value of each drug was calculated using sigmoidal dose-response curve-fitting models (Graph Pad Prizm software, version 5) 1.

T47D = experiment: Cytotoxicity screening, SRB assay, T47D; format: cell-based, human; details: Homo sapiens, T47D, 48 h
VERO = experiment: Cytotoxicity screening, SRB assay, normal Vero cells; format: cell-based; details: 48 h, normal cell line; for IC50: Chlorocebus sabaeus, Vero
Experimental: as §1, §2, §3, §4, §5

H460 = experiment: Cytotoxicity screening, SRB assay, H460; format: cell-based, human; details: for H460 IC50: 48 h; for IC50: Homo sapiens, NCI-H460, 48 h
Experimental: as §1, §2, §3, §4, §5

FADU = experiment: Cytotoxicity screening, SRB assay, FADU; format: cell-based, human; details: 48 h; for IC50: Homo sapiens, FaDu
Experimental: as §1, §2, §3, §4, §5

HEP2 = experiment: Cytotoxicity screening, SRB assay, HEP2; format: cell-based, human; details: for HEP2 IC50: 48 h; for IC50: Homo sapiens, HEp-2, 48 h
Experimental: as §1, §2, §3, §4, §5

[1] = system: MCF7, H460, FADU, HEP2, HEPG2, HCT 116, Caco2, and Vero cells; experiment: Oxidative stress assessment (MDA, NO, SOD, GSH); format: cell-based; details: dose IC50, 48 h
Experimental: Consequently, both compounds 8 and 14 were tested for their antioxidant activity in MCF7, H460, FADU, HEP2, HEPG2, HCT 116, Caco2, and Vero cells, and the dose used was the IC50 in all cell lines.
SI 2: Oxidative stress assessment
SI 2A: Determination of malondialdehyde content (MDA)
Lipid peroxidation products were quantified by measuring MDA level in cell culture lysate of control and treated cells using Lipid Peroxidation (MDA) Assay Kit (Sigma Aldrich Chemical Co., St.
Louis, USA) following the manufacturer’s instructions. The MDA level was calculated relative to the corresponding protein content. The absorbance was determined at 532 nm using a spectrophotometer (Spectronic, Milton Roy Co., USA).
SI 2B: Determination of superoxide dismutase (SOD)
[…] in cell culture lysate of control and treated cells by SOD determination kit (Sigma Aldrich Chemical Co., St. Louis, USA) following the manufacturer’s instructions. SOD level was calculated relative to the corresponding protein content. The absorbance of the supernatant was determined at 450 nm using a spectrophotometer (Spectronic, Milton Roy Co., USA) 2. The experiment was carried out three independent times.
SI 2C: Determination of reduced glutathione (GSH) content
Reduced glutathione was determined by adopting Ellman’s method. MCF7 and LCC2 cells were harvested, the protein was precipitated with trichloroacetic acid, and Ellman’s reagent [5,5-dithiobis-(2-nitrobenzoic acid)] (Sigma Aldrich Chemical Co, St. Louis, USA) was added to the supernatant. The absorbance was read at 405 nm and total SH was calculated as µM of GSH/mg protein 3.
SI 2D: Determination of nitric oxide (NO) content
Nitric oxide was determined in the culture media of the control and treated cells a s described before
4. Briefly, 0.5 ml cold absolute ethanol was added to 250µl culture media then left for 48 h at 4 °C to attain complete protein precipitation followed by centrifugation at 13,000 rpm for 1 h using a cooling centrifuge.
100 μl of nitrate standard solution were serially diluted in duplicate in a 96 -well microplate. Then, 100 μl of vanadium chloride were added to each well rapidly followed by 50 μl sulfanilamide and 50µl n -(1-naphthyl) ethylenediamine in 2 N hydrochloric acid. The absorbance at 540 nm was measured spectrophotometrically using an ELISA microplate reader (TECAN SunriseTM, Germany) following an incubation period of 30 min. The level of total nitrite/nitrate was expressed as µM and determined using […]

EGFR (T790M) = EGFR (T790M) (Homo sapiens, UniProt P00533, T790M); experiment: EGFR kinase (T790M) inhibition assay, Kinase-Glo MAX
Sequence of EGFR (T790M) (P00533 25-1210 T790M): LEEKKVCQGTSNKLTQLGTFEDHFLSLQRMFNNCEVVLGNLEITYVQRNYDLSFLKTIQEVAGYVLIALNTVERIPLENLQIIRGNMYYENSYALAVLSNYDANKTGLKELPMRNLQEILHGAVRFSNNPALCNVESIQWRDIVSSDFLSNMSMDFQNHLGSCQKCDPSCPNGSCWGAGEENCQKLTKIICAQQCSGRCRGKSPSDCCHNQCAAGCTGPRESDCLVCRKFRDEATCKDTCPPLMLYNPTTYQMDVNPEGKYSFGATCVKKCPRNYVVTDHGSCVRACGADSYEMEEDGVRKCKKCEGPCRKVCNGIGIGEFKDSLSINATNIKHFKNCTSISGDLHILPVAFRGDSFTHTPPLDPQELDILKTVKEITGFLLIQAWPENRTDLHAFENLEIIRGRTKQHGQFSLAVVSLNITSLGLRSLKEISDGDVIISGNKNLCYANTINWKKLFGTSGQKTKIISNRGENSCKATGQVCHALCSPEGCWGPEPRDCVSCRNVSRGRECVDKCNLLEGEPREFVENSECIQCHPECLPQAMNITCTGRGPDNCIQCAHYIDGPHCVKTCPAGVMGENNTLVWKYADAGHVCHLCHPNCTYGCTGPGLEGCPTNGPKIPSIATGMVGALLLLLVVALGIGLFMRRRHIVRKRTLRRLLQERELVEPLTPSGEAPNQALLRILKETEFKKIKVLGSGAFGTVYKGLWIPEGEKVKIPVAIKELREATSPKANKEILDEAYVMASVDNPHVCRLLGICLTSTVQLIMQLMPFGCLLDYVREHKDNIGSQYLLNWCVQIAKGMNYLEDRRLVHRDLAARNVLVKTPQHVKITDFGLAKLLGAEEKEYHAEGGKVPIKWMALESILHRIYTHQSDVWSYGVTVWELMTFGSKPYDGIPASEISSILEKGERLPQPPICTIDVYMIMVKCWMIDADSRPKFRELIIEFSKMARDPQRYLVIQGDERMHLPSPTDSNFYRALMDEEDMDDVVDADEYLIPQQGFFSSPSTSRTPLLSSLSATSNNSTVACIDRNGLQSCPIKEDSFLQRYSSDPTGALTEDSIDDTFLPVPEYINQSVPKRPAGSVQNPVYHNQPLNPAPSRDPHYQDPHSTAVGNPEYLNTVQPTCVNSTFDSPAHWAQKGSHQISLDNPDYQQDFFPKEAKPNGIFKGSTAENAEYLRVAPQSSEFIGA
Experimental: The reagent, Kinase-Glo MAX, was used[50], and luminescence was detected by applying the microplate reader.
The assay protocol was carried out by adding 25 μL of the master mixture: (6 μL Kinase assay buffer + 1 μL ATP (500 μM) + 1 μL PTK substrate + 17 μL water) to each well. Thereafter, 5 μL of the inhibitor solution was added to each well labeled as “test inhibitor”. Meanwhile, for the “positive control" and “blank”, 5 μL of the same solution without inhibitor (inhibitor buffer) was added. To the wells designated as "blank", add 20 μL of Kinase assay buffer. The amount of EGFR required for the assay was calculated and the enzyme was diluted to 1 ng/μL with Kinase assay buffer. The reaction was initiated by adding 20 μL of diluted EGFR enzyme to the wells designated as “positive control” and "test inhibitor control". The wells were incubated at 30°C for 40 minutes, then 50 μL of Kinase-Glo Max reagent was added to each well. The plate was incubated at room temperature for 15 minutes and luminescence was measured using the microplate reader.

- IC50 (EGFR (T790M)): 27 ± 2 nM
Structure (SMILES): Oc1n[nH]c2nc(-c3ccco3)cc(-c3cccs3)c12 [Compound 8]
- MCF7 IC50 (MCF7): 4.10 µg/mL
- IC50 (MCF7): 3.8 µg/mL (≈ 13.4 µM)
- IC50 (T47D): 7.5 µg/mL (≈ 26.5 µM)
- IC50 (VERO): 4.3 µg/mL (≈ 15.2 µM)
- VERO IC50 (VERO): 3.90 µg/mL
- H460 IC50 (H460): 11.70 µg/mL
- IC50 (H460): 8.5 µg/mL (≈ 30 µM)
- FADU IC50 (FADU): 5.60 µg/mL
- IC50 (FADU): 3.8 µg/mL (≈ 13.4 µM)
- HEP2 IC50 (HEP2): 7.90 µg/mL
- IC50 (HEP2): 4.4 µg/mL (≈ 15.5 µM)
- effect on oxidative state (MDA, NO, SOD, GSH) ([1]; Caco2): antioxidant effect
- effect on oxidative state (MDA, NO, SOD, GSH) ([1]; all tested cell lines except Caco2): pro-oxidant effect

- IC50 (EGFR (T790M)): 156 ± 9 nM
Structure (SMILES): N#Cc1c(-c2cccs2)cc(-c2ccco2)[nH]c1=O [Compound 14]
- MCF7 IC50 (MCF7): 3.70 µg/mL
- IC50 (MCF7): 7 µg/mL (≈ 26.1 µM)
- IC50 (T47D): 4.7 µg/mL (≈ 17.5 µM)
- IC50 (VERO): 4 µg/mL (≈ 14.9 µM)
- VERO IC50 (VERO): 4.60 µg/mL
- H460 IC50 (H460): 8.00 µg/mL
- IC50 (H460): 12.5 µg/mL (≈ 46.6 µM)
- FADU IC50 (FADU): 3.90 µg/mL
- IC50 (FADU): 5.7 µg/mL (≈ 21.2 µM)
- HEP2 IC50 (HEP2): 4.70 µg/mL
- IC50 (HEP2): 8 µg/mL (≈ 29.8 µM)
- effect on oxidative state (MDA, NO, SOD, GSH) ([1]; FADU and Caco2): anti-oxidant effect
- effect on oxidative state (MDA, NO, SOD, GSH) ([1]; MCF7, H460, HEP2, HEPG2, HCT, and Vero cells): pro-oxidant effect
